Assays:
[1] = target: T1, human glucocorticoid receptor-α [GRX] isoform (Homo sapiens, UniProt P04150); experiment: Radioligand binding with human glucocorticoid receptor cytosol ([3H]-dexamethasone competition); conditions: GRX cytosol expressed in insect SF21 cells, [3H]-Dex ~0.9 nM, 4° C. overnight; Ki by Cheng-Prusoff, KL ~[…]; read-out: Ki (nM) GR
T1 construct: host or cells: insect SF21 cells (baculovirus)
T1 sequence (P04150 1-777): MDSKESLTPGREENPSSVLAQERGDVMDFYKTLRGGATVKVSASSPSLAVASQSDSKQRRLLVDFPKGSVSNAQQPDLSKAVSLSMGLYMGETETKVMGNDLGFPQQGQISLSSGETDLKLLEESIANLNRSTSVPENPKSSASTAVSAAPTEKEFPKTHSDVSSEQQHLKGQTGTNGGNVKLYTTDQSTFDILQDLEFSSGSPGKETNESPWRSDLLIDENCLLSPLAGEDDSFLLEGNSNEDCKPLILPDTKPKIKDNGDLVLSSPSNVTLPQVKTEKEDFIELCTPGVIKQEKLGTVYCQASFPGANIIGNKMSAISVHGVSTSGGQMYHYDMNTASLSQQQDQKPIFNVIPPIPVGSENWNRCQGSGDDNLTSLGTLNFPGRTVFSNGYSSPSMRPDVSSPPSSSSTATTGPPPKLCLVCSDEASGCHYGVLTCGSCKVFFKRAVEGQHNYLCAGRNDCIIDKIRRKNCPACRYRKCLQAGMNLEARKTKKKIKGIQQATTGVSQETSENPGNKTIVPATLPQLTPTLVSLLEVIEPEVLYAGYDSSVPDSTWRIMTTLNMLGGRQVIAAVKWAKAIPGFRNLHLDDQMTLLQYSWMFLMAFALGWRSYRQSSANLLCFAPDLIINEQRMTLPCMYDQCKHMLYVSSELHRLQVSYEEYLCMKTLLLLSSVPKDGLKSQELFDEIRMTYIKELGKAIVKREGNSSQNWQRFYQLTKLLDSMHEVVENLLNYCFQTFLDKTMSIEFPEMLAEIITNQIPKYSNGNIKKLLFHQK

[2] = target: T2, human progesterone receptor-A [PRA] isoform (Homo sapiens, UniProt P06401); experiment: Radioligand binding with human progesterone receptor cytosol ([3H]-progesterone competition); conditions: PRA cytosol expressed in insect SF21 cells, [3H]Prog ~0.8 nM, 4° C. overnight; Ki by Cheng-Prusoff, KL ~4.5 nM; read-out: Ki (nM) PR
T2 construct: host or cells: insect SF21 cells (baculovirus)
T2 sequence (P06401 1-769 isoform P06401-2): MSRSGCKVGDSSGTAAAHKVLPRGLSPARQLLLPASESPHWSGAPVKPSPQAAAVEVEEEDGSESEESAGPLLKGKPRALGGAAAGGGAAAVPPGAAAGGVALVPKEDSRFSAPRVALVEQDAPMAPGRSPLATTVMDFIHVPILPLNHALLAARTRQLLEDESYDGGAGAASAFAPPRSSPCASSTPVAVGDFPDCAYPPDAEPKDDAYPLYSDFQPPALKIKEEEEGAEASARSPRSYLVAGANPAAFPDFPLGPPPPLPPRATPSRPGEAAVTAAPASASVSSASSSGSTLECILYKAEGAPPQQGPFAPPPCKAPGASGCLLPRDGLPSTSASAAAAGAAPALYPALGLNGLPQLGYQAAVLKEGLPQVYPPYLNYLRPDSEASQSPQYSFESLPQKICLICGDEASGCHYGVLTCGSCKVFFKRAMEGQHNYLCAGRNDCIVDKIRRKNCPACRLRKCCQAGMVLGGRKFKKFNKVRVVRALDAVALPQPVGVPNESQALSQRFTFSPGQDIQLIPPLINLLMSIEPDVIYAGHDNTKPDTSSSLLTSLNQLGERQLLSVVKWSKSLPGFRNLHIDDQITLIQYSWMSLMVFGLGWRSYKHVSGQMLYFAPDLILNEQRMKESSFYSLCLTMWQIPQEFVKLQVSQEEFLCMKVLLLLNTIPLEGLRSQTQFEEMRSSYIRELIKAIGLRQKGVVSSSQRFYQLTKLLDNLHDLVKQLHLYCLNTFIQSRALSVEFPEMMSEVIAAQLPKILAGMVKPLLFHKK

Row | Compound | Ki [1] [nM] | Ki [2] [nM]
1 | C=CCC1Oc2cccc(OC)c2-c2ccc3c(c21)C(C)=C(C)C(C)(C)N3 (stereo not shown) [Example 362, 2,5-Dihydro-10-methoxy-2,2,3,4-tetramethyl-5-allyl-1H-[1]benzopyrano[3,4-f]quinoline] | 6.5 | 3370
2 | COc1cccc2c1-c1ccc3c(c1C(c1cccc(CCOC(=O)N(C)C)c1)O2)C(C)=CC(C)(C)N3 (stereo not shown) [Example 317, 2,5-Dihydro-10-methoxy-5-(3-(2-(N,N-dimethylaminocarbonyloxy)ethyl)phenyl)-2,2,4-trimethyl-1H-[1]benzopyrano[3,4-f]quinoline] | 6.5 | ≥ 10000
3 | COC(=O)/C=C/CC1Oc2cccc(OC)c2-c2ccc3c(c21)C(C)=CC(C)(C)N3 (stereo not shown) [Example 194] | 7.7 | ≥ 10000
4 | COc1cccc2c1-c1ccc3c(c1[C@@H](C1CCCOC1=O)O2)C(C)=CC(C)(C)N3 (stereo in doubt) [Example 134, rel (5R,2′R) 2,5-Dihydro-10-methoxy-5-(2-oxo-3-tetrahydropyranyl)-2,2,4-trimethyl-1H[1]benzopyrano[3,4-f]quinoline] | 238 | ≥ 10000
5 | COc1cccc2c1-c1ccc3c(c1C(c1cc(C)cc(NC(=O)N(C)C)c1)O2)C(C)=CC(C)(C)N3 (stereo not shown) [Example 118, N′-[3-(2,5-Dihydro-10-methoxy-2,2,4-trimethyl-1H-1benzopyrano[3,4-f]quinolin-5-yl)-5-methylphenyl]-N,N-dimethylurea] | 43 | ≥ 10000
6 | C=CCC1Oc2ccc(OCCCC(=O)OCC)c(OC)c2-c2ccc3c(c21)C(C)=CC(C)(C)N3 (racemic) [Example 433, (+/−)2,5-Dihydro-9-(4-ethoxy-4-oxo-butoxy)-10-methoxy-2,2,4-trimethyl-5-allyl-1H-[1]benzopyrano[3,4-f]quinoline] | 30.2 | 1410
7 | COc1ccc(Br)c2c1-c1ccc3c(c1C(C1C=C(C)CCC1)O2)C(C)=CC(C)(C)N3 (stereo not shown) [Example 299] | 5.4 | 2900
8 | CCC1=C[C@@H]([C@H]2Oc3ccc(O)c(OC)c3-c3ccc4c(c32)C(C)=CC(C)(C)N4)CCC1 [Example 277] | 11.3 | 272
9 | COc1cccc2c1-c1ccc3c(c1C(=Cc1ccc(Cl)cc1)O2)C(C)=CC(C)(C)N3 [Example 121, 5-[(4-chlorophenyl)methylene]-2,5-dihydro-10-methoxy-2,2,4-trimethyl-1H-[1]benzopyrano[3,4-f]quinoline] | 11.3 | 672
10 | COc1c(O)ccc2c1-c1ccc3c(c1C(=Cc1ccccc1)O2)C(C)=CC(C)(C)N3 [Example 406, 9-Hydroxy-10-methoxy-5-(phenylmethylene)-2,2,4-trimethyl-1H-2,5-dihydro-[1]benzopyrano[3,4-f]quinoline] | 2.3 | 97.9
11 | C=CCOc1cccc(C2Oc3cccc(OC)c3-c3ccc4c(c32)C(C)=CC(C)(C)N4)c1 (stereo not shown) [Example 86, 2,5-Dihydro-10-methoxy-2,2,4-trimethyl-5-[3-(2-propenyloxy)phenyl]-1H-[1]benzopyrano[3,4-f]quionline] | 2.1 | ≥ 10000
12 | COc1cccc2c1-c1ccc3c(c1C(c1cccc(OC(C)=O)c1)O2)C(C)=CC(C)(C)N3 (stereo not shown) [Example 12, 3-(2,5-Dihydro-10-methoxy-2,2,4-trimethyl-1H-[1]benzopyrano[3,4-f]quinolin-5-yl)phenol, Acetate (Ester)] | 8.6 | ≥ 10000
13 | C#CCC1Oc2ccc(O)c(OC)c2-c2ccc3c(c21)C(C)=CC(C)(C)N3 (stereo not shown) [Example 266, 2,5-Dihydro-9-hydroxy-10-methoxy-5-(3-propynyl)-2,2,4-trimethyl-1H-[1]benzopyrano[3,4-f]quinoline] | 0.71 | 102
14 | COc1c(O)ccc2c1-c1ccc3c(c1[C@H]([C@H]1C=C(C)CCC1)O2)C(C)=CC(C)(C)N3 (racemic) [Example 243, (+/−)(5S,3′R)2,5-Dihydro-9-hydroxy-10-methoxy-2,2,4-trimethyl-5-(1-methylcyclohexen-3-yl)-1H-[1]benzopyrano[3,4-f]quinoline] | 1.6 | 21.2

Reference: patent publication US6506766B1 (Abbott Laboratories, priority 1998, dated 2003)
